In brackets after ≈: the same amount, converted by molar mass.
How the values were obtained:
sheep erythrocytes = assay: Haemolysis of sheep erythrocytes; format: cell-based; settings: for Average (SD) % haemolysis (n = 2): 2% sheep erythrocytes, 37° C., 2 h
Method: As an indicator of toxicity to human cells, haemolysis experiments on sheep erythrocytes were undertaken with TSB007.
10 mg/ml stock solution of TSB007 was prepared in 100% DMSO. Master stock solutions of TSB007 (10 mg/ml) were made by dissolving 20 mg dehydrated compound in 2 ml 100% DMSO. They were stored in foil-covered glass bottles at −20° C. Master stocks stored in this way retained full antimicrobial activity for a minimum period of 6 weeks (results not shown).
Serial, 10-fold dilutions were performed in PBS to make solutions of 1000, 100, 10 and 1 mg/L of TSB007. In microcentrifuge tubes, 500 μl of each dilution was combined with 480 μl PBS and 20 μl washed sheep erythrocytes (100%) so that the final concentration of erythrocytes was 2% and the final concentrations of compound were 500, 50, 5 and 0.5 mg/L. Dilutions of DMSO without. TSB007 were prepared and tested as above to check for haemolysis due to DMSO. A 100% haemolysis control was prepared with 980 μl water and 20 μl erythrocyte suspension. A negative control was prepared with 980 μl PBS and 20 μl erythrocyte suspension. Dilutions and controls were prepared and tested in duplicate.
Tubes were incubated at 37° C. for 2 h on a rocker then centrifuged at 12 000 g for 5 mins. The OD540 of the supernatant was determined using 100 μl volumes transferred to a microtitre tray. % haemolysis was determined by blanking the OD against that of the negative control and presenting the resulting OD as a proportion of the OD of the positive control (blanked with water).

[1] = system: Clostridium difficile NCTC 43593; assay: Disk diffusion; format: cell-based; settings: 10 mg/ml, 20 μl, BA - prereduced, anaerobe
Method: (§1) Plates were incubated at 35° C.

[2] = system: Shigella flexneri NCTC 8192; assay: Disk diffusion; format: cell-based; settings: 10 mg/ml, 20 μl; repeat
Method: as §1

[3] = system: Vibrio cholerae (non-toxigenic) M3695; assay: Disk diffusion; format: cell-based; settings: 10 mg/ml, 20 μl, (other strain?)
[4] = system: Yersinia enterocolitica ATCC 9610; assay: Disk diffusion; format: cell-based; settings: 10 mg/ml, 20 μl
[5] = system: Streptococcus pneumoniae strain 12213; assay: Disk diffusion; format: cell-based; settings: 10 mg/ml, 20 μl
[6] = system: Clostridium perfringens ATCC 2734; format: cell-based; settings: 10 mg/ml, 20 μl, BA - prereduced, anaerobe
S. aureus ATCC 29213 = assay: MIC and MBC by broth microdilution; format: cell-based; settings: Staphylococcus aureus, ATCC29213, CA-MHB, two independent replicates
Method: (§2) The method used was based on CLSI protocols for broth microdilution testing of these species. As recommended by CLSI, inocula were prepared by direct colony suspension, and the media used were cation-adjusted Mueller Hinton broth (CA-MHB) for Staphylococcus spp. and CA-MHB containing 5% lysed horse blood (CA-MHB+LHB) for Streptococcus spp. Briefly, 24 h blood agar plate (BA) cultures of Staphylococcus aureus strains NCTC 6571, ATCC 29213, ATCC 33592 (MRSA) and NCTC 10442 (MRSA), Staphylococcus epidermidis ATCC 29971, Staphylococcus xylosus ATCC 29971, Streptococcus pneumoniae strains ATCC 49619 and ATCC 6305, and Streptococcus pyogenes strains NCTC 8191 and NCTC 8302 were used to prepare 0.5 McFarland suspensions in saline. Two 640 μg/ml working stocks of TSB007 were prepared from a fresh master stock, one in CA-MHB for testing against the Staphylococcus spp. and the other in CA-MHB+LHB for testing against Streptococcus spp. The working stocks were further diluted 1/10 in these broths for adding to microtitre trays to test MICs of 32, 16, 8, 4, 2, 1, 0.5, 0.25, 0.125 and 0.06 μg/ml.
(§3) The wells of two 96-well microtitre trays (one for Staphylococcus spp. and one for Streptococcus spp.) were filled with 100 μl of the appropriate broth, except for the first column. The last column, a sterility control containing no TSB007 or inoculum, was filled with an additional 100 μl broth. Then 100 μl of the 64 μg/ml TSB007 solution was added to the first two columns, the contents of column 2 was mixed, then 100 μl of this was used in two-fold serial dilutions along the rest of the tray except the last two columns. The final 100 μl was discarded. […] Finally, to the first 11 wells of one row per strain, 100 μl of a 10^−2 dilution (in the appropriate broth) of the 0.5 McFarland suspension was added. The microtitre trays were then incubated at 35° C. for 24 h before the MICs were read visually. Wells were further subcultured (10 μl drop onto BA then incubated at 35° C. for 24 h) and colonies subsequently counted to determine minimum bactericidal concentrations (MBCs). The concentration of the initial inoculum was confirmed on BA by counting colonies from 2×10 μl spots of 10^−5 dilutions of the 0.5 McFarland suspensions. Testing was performed on two separate occasions.

S. pneumoniae ATCC 6305 = assay: MIC and MBC by broth microdilution; format: cell-based; settings: Streptococcus pneumoniae, ATCC6305, CA-MHB+LHB, two independent replicates
Method: as §2, §3

[7] = system: Aeromonas hydrophila NCTC 8049/ATCC 7966; assay: Disk diffusion; settings: 10 mg/ml, 20 μl; repeat
[8] = system: Escherichia coli NCTC 10538; assay: Disk diffusion; settings: 10 mg/ml, 20 μl; repeat; value printed with '?'
[9] = system: Moraxella catarrhalis NCTC 3625; assay: Disk diffusion; settings: 10 mg/ml, 20 μl; repeat, strain NCTC 3625
[10] = system: Enterococcus faecalis NCTC 775; assay: Disk diffusion; settings: 10 mg/ml, 20 μl
[11] = system: Listeria monocytogenes NCTC 7973; assay: Disk diffusion; settings: 10 mg/ml, 20 μl
[12] = system: Staphylococcus xylosus ATCC 29971; assay: Disk diffusion; settings: 10 mg/ml, 20 μl

## O=C(O)c1ccc(/C=C/c2cc(/C=C/c3ccc(C(=O)O)cc3)cc(/C=C/c3ccc(C(=O)O)cc3)c2)cc1 [TSB007]
Sheep erythrocytes; 0.5 mg/L
  Average (SD) % haemolysis (n = 2): −2.316 (0.695) %
Sheep erythrocytes; 5 mg/L
  Average (SD) % haemolysis (n = 2): 2.175 (0.099) %
Sheep erythrocytes; 50 mg/L
  Average (SD) % haemolysis (n = 2): 2.316 (0.099) %
Sheep erythrocytes; 0.5-500 mg/L
  haemolytic activity: very low
Sheep erythrocytes; 500 mg/L
  Average (SD) % haemolysis (n = 2): 5.053 (0.595) %
[1]; 24 h
  Zone diameters, 24 h TSB007: 10 trim
[1]; 48 h
  Zone diameters, 48 h TSB007: 10 trim
[2]
  Zone diameters, Repeat Results: 8.5 trim
[3]
  Zone diameters, Repeat Results: 7 trim
[4]
  Zone diameters, 24 h TSB007: 7 trim
[5]
  Zone diameters, Repeat Results: 26 trim
[6]; 24 h
  Zone diameters, 24 h TSB007: 12 trim
[6]; 48 h
  Zone diameters, 48 h TSB007: 12 trim
S. aureus ATCC 29213; 35° C., 24 h
  MIC: 4 µg/mL (≈ 7.74 µM)
S. aureus ATCC 29213
  MBC: > 32 µg/mL
S. pneumoniae ATCC 6305; 35° C., 24 h
  MIC: > 32 µg/mL
S. pneumoniae ATCC 6305
  MBC: > 32 µg/mL
[7]
  Zone diameters, Repeat Results: 8 trim
[8]
  Zone diameters, Repeat Results: 7.5? trim
[9]
  Zone diameters, Repeat Results: 36 trim
[10]; 24 h
  Zone diameters, 24 h TSB007: 10 trim
[10]; 48 h
  Zone diameters, 48 h TSB007: 10 trim
[10]; repeat
  Zone diameters, Repeat Results: 8 trim
[11]; 24 h
  Zone diameters, 24 h TSB007: 9 trim
[11]; 48 h
  Zone diameters, 48 h TSB007: 9 trim
[11]; repeat, value printed with '?'
  Zone diameters, Repeat Results: 15? trim
[12]; 24 h
  Zone diameters, 24 h TSB007: 17 trim
[12]; repeat
  Zone diameters, Repeat Results: 18 trim
